Assay [1] deals with T1, D1 (Homo sapiens, UniProt P21728). As to the kind of experiment: D1 cAMP HTRF assay (HEK293T/hD1#1 stable cell line). The class given is cell-based. The arrangement: expressed in transfected cells. In short, it runs like this: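 Cells from a stable human D1 HEK293T line in PBS/0.5 μM IBMX were incubated with compound for 30 min at room temperature, and cAMP was then detected by competitive HTRF (1 h, room temperature). A cAMP standard curve converted ratios to cAMP, giving ratio-based and cAMP-based EC50 values.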
For orientation: TR-FRET usually uses a lanthanide donor and a delayed reading to cut background.

For assay [2], the target named is T1, D1. As to the kind of experiment: Human D1 receptor binding assay ([3H]-SCH23390 competition).
The mark [3] stands for this setting: Human D1 Receptor Binding, Ki (nM), Geometric mean of 2-4 determinations, a: >=5 determinations, d: single determination.

Values joined by “and” are separate entries in the source; they are usually repeats but may differ in a detail not shown here. Equal values may be shown once. Where a name gives a salt, the structure may show the parent alone. Read-outs that look alike come from different tables or passages of the source.

T1 sequence (P21728 whole entry): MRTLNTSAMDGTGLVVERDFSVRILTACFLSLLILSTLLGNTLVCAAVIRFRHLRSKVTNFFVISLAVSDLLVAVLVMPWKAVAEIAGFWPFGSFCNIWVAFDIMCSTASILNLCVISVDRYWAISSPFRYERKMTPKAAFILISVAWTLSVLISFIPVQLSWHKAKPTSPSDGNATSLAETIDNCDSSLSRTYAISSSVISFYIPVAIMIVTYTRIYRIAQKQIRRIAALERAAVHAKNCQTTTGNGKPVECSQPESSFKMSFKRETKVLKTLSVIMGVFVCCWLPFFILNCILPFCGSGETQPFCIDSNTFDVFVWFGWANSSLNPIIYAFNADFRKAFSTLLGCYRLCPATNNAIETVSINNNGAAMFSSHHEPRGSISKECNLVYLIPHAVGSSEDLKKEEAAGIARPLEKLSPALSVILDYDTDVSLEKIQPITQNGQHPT

As to `COc1nc(C)c(-c2ccc(Oc3nccc4occc34)cc2C)c(C)n1` [Example 149, 4-[4-(2-methoxy-4,6-dimethylpyrimidin-5-yl)-3-methylphenoxy]furo[3,2-c]pyridine], on D1 [1], a half-maximal effect (EC50) was put at 464 nM. Besides, the affinity at D1 [2] (setting [3]), expressed as Ki, was 31.4 nM.

Regarding `Cc1cc(Oc2nccc3occc23)ccc1-c1c(C)ncnc1C#N` (single isomer, unassigned) [Example 82, (+)-5-[4-(furo[3,2-c]pyridin-4-yloxy)-2-methylphenyl]-6-methylpyrimidine-4-carbonitrile], the EC50 at D1 [1] is 113 nM and 781 nM. This molecule also came in with a Ki at D1 [2] (setting [3]) of 21.3 nM.

For the molecule `Cc1ncnc(C)c1-c1ccc(Oc2nccc3occc23)c(F)c1F` [Example 141, 4-[4-(4,6-dimethylpyrimidin-5-yl)-2,3-difluorophenoxy]furo[3,2-c]pyridine], on D1 [1], the midpoint of the response, the EC50, lay at 298 nM. The inhibition constant Ki on D1 [2] (setting [3]) was found to be 69.9 nM.

`Cc1cc(Oc2nccc3occc23)ccc1-c1c(C)ncnc1N1Cc2cccnc2C1` [Example 183, 4-{4-[4-(5,7-dihydro-6H-pyrrolo[3,4-b]pyridin-6-yl)-6-methylpyrimidin-5-yl]-3-methylphenoxy}furo[3,2-c]pyridine, formate salt] yielded an EC50 at D1 [1] of 1400 nM. Also, on D1 [2] (setting [3]), the Ki came out at 62.4 nM.

In turn, `CO[C@H]1CCN(c2ncnc(C)c2-c2ccc(Oc3nccc4occc34)cc2C)C1` [Example 202, 4-(4-{4-[(3S)-3-methoxypyrrolidin-1-yl]-6-methylpyrimidin-5-yl}-3-methylphenoxy)furo[3,2-c]pyridine, trifluoroacetate salt] showed an EC50 at D1 [1] of 1290 nM. This molecule also had a Ki on D1 [2] (setting [3]) of 114 nM.

The molecule `COC(=O)COc1cc(Oc2nccc3occc23)ccc1-c1cccc2nccn12` [Example 44, methyl [5-(furo[3,2-c]pyridin-4-yloxy)-2-(imidazo[1,2-a]pyridin-5-yl)phenoxy]acetate, trifluoroacetate salt] had an EC50 on D1 [1] of 651 nM. Moreover, the Ki at D1 [2] (setting [3]) was 129 nM.

For the molecule `Cc1ccc2nccn2c1-c1ccc(Oc2nccc3occc23)cc1` [Example 161, 4-[4-(6-methylimidazo[1,2-a]pyridin-5-yl)phenoxy]furo[3,2-c]pyridine], on D1 [1], the half-maximal effective concentration (EC50) is 94.7 nM and 173 nM. On D1 [2] (read-out: Human D1 Receptor Binding, Ki (nM), Geometric mean of 2-4 determinations, a: >=5 determinations, d: single determination), the Ki turned out to be 8.49 nM.

`Cc1ncc(N)nc1-c1ccc(Oc2nccc3occc23)cc1Cl` [Example 193, 6-[2-chloro-4-(furo[3,2-c]pyridin-4-yloxy)phenyl]-5-methylpyrazin-2-amine]: a half-maximal effect at D1 [1] (EC50) was put at 944 nM. At D1 [2] (setting [3]), the Ki worked out at 87.5 nM.

Take `Cc1cc(Oc2nccc3occc23)ccc1-c1c(C)ncn1C` [Example 102, 4-[4-(1,4-dimethyl-1H-imidazol-5-yl)-3-methylphenoxy]furo[3,2-c]pyridine]: at D1 [1], a half-maximal effect (EC50) was put at 714 nM. In addition, the Ki at D1 [2] (setting [3]) worked out at 84.6 nM.

`COc1cccc2c(-c3ccc(Oc4nccc5occc45)cc3)ncnc12` [Example 208, 4-[4-(furo[3,2-c]pyridin-4-yloxy)phenyl]-8-methoxyquinazoline] displayed an EC50 at D1 [1] of 1550 nM. At D1 [2] (setting [3]), the Ki turned out to be 170 nM.

As for `CCc1noc(COc2cc(Oc3nccc4occc34)ccc2-c2nccnc2C)n1` [Example 199, 4-{3-[(3-ethyl-1,2,4-oxadiazol-5-yl)methoxy]-4-(3-methylpyrazin-2-yl)phenoxy}furo[3,2-c]pyridine, formate salt], the EC50 on D1 [1] came to 782 nM. For the same molecule, on D1 [2] (setting [3]), the Ki was 104 nM.

Molecule `Cc1cc(Oc2nccc3occc23)ccc1-c1c(C)nc(N)nc1C` [Example 75, 5-[4-(furo[3,2-c]pyridin-4-yloxy)-2-methylphenyl]-4,6-dimethylpyrimidin-2-amine] displayed an EC50 on D1 [1] of 364 nM. Further, affinity at D1 [2] (setting [3]) was put at a Ki of 21.6 nM.

Molecule `Cc1cc(Oc2nccc3occ(C#N)c23)ccc1-c1c(C)ncnc1C` [Example 210, 4-[4-(4,6-dimethylpyrimidin-5-yl)-3-methylphenoxy]furo[3,2-c]pyridine-3-carbonitrile] displayed an EC50 on D1 [1] of 655 nM. The Ki at D1 [2] (setting [3]) amounted to 18.8 nM.

`Cc1cc(Oc2nccc3occc23)ccc1-c1c(C)ncnc1N1Cc2cncnc2C1` [Example 175, 6-{5-[4-(furo[3,2-c]pyridin-4-yloxy)-2-methylphenyl]-6-methylpyrimidin-4-yl}-6,7-dihydro-5H-pyrrolo[3,4-d]pyrimidine, formate salt] showed an EC50 on D1 [1] of 475 nM. On D1 [2] (setting [3]), this molecule registered a Ki of 41.4 nM.

Consider `Cc1cc(Nc2nccc3occc23)ccc1-c1c(C)ncnc1C` [Example 132, N-[4-(4,6-dimethylpyrimidin-5-yl)-3-methylphenyl]furo[3,2-c]pyridin-4-amine, formate salt], for which a half-maximal response on D1 [1] (EC50) required 2260 nM. Also, at D1 [2] (setting [3]), affinity was put at a Ki of 39.9 nM.

Regarding `Cc1cc(Oc2nccc3occc23)ccc1-c1c(C)ncnc1N1CCC(CO)C1` (stereo not drawn) [Example 179, (1-{5-[4-(furo[3,2-c]pyridin-4-yloxy)-2-methylphenyl]-6-methylpyrimidin-4-yl}pyrrolidin-3-yl)methanol, formate salt], the midpoint of the response at D1 [1], the EC50, lay at 921 nM. Also, the Ki at D1 [2] (setting [3]) amounted to 47.2 nM.

Regarding `Cc1cc(Oc2nccc3occc23)ccc1-c1c(C)ncnc1C` [Example 1, 4-[4-(4,6-Dimethylpyrimidin-5yl)-3-methylphenoxy]furo[3,2-c]pyridine], the EC50 on D1 [1] was 135 nM and 129 nM. The same molecule displayed a Ki on D1 [2] (setting [3]) of 27.3 nM.

As for `Cc1cc(Oc2nccc3occc23)ccc1-c1c(C)ncc(=O)n1C` (single isomer, unassigned) [Example 121, (−)-6-[4-(furo[3,2-c]pyridin-4-yloxy)-2-methylphenyl]-1,5-dimethylpyrazin-2(1H)-one], a half-maximal response on D1 [1] (EC50) required 50.4 nM. Besides, the Ki on D1 [2] (setting [3]) stood at 9.42 nM.

In turn, `Cc1ncnc(C)c1-c1ccc(Oc2nccc3occc23)cc1O` [Example 72, 2-(4,6-dimethylpyrimidin-5-yl)-5-(furo[3,2-c]pyridin-4-yloxy)phenol] had an EC50 on D1 [1] of 989 nM. This molecule yielded a Ki on D1 [2] (setting [3]) of 91.4 nM.

For the molecule `Cc1cc(Oc2nccc3occc23)ccc1-c1c(C)ncnc1N1CC(F)C1` [Example 97, 4-{4-[4-(3-fluoroazetidin-1-yl)-6-methylpyrimidin-5-yl]-3-methylphenoxy}furo[3,2-c]pyridine, formate salt], at D1 [1], a half-maximal effect (EC50) was put at 205 nM. The same molecule returned a Ki on D1 [2] (setting [3]) of 7.52 nM.

On D1 [1], `Cc1ncc2nccn2c1-c1ccc(Oc2nccc3occc23)cc1` [Example 172, 5-[4-(furo[3,2-c]pyridin-4-yloxy)phenyl]-6-methylimidazo[1,2-a]pyrazine] returned an EC50 of 408 nM. The affinity at D1 [2] (setting [3]), expressed as Ki, was 32.7 nM.

With `Cc1cc(Oc2nccc3occc23)ccc1-c1c(C)nc(C)c2nccn12` [Example 109, 5-[4-(furo[3,2-c]pyridin-4-yloxy)-2-methylphenyl]-6,8-dimethylimidazo[1,2-a]pyrazine], a half-maximal effect at D1 [1] (EC50) was put at 429 nM. The Ki at D1 [2] (setting [3]) came to 57.5 nM.

For the molecule `FC(F)(F)c1cc(Oc2nccc3occc23)ccc1-c1cccc2nccn12` [Example 54, 4-[4-(imidazo[1,2-a]pyridin-5-yl)-3-(trifluoromethyl)phenoxy]furo[3,2-c]pyridine], on D1 [1], it took 243 nM to reach a half-maximal effect (EC50). The affinity at D1 [2] (setting [3]), expressed as Ki, was 10.2 nM.

Consider `COc1ccc2cnccc2c1-c1ccc(Oc2nccc3occc23)cc1` [Example 33, 5-[4-(furo[3,2-c]pyridin-4-yloxy)phenyl]-6-methoxyisoquinoline], for which the EC50 on D1 [1] amounted to 2270 nM. At D1 [2] (setting [3]), this molecule yielded a Ki of 111 nM.

By EC50 is commonly meant the concentration needed to bring the measured effect to its halfway point. As usually defined, the Ki is a dissociation constant, usually derived from enzyme kinetics or from competition with a known ligand.

The values are drawn from patent US20150291625A1 (PFIZER INC., priority 2012, published 2015).
